These results are taken from US8741653B2, “Single recombination system and methods of use” (priority 2008, dated 2014).

The subject of one series is MVA. Type of series: cell-based, Modified Vaccinia Ankara virus.

The structures appear in SMILES notation.

Turning to `CN(C)[C@@H]1C(O)=C(C(N)=O)C(=O)[C@@]2(O)C(O)=C3C(=O)c4c(O)cccc4[C@@](C)(O)[C@H]3C[C@@H]12` [tetracycline], the “reduction of MVA replication” value in the series on MVA is 1 log. In the series on CEF cells, the “cytotoxic effect of tetracycline” value is recorded as “pronounced cytotoxic effect”.
